From patent US7754694B2, “Pyrrolo[2, 1-C][1, 4]benzodiazepine-glycoside prodrug useful as a selective anti tumor agent” (priority 2007, dated 2010) come the findings set out here.

One experiment relates to HepG2 cells. Kind of experiment: Cell cycle progression by FACS (subG1 and G2/M population) in HepG2 cells. It is filed as cell-based, human. An excerpt:
(§1) The cytotoxic effects of the newly synthesized compounds 1a and 1b and their respective PBD imines were examined by cell cycle progression experiments on human tumor cells, by using fluorescence-activated cell sorting (FACS) analysis, in the absence and in the presence of β-galactosidase enzyme. In the primary flow cytometric study, the DNA content of the cells was used as a major determinant for cell count. The subG1 population, a conspicuous indicator for cell death, presumably apoptosis, and G2/M population was also determined in HepG2 and A375 cell lines.
Next we evaluated the prodrugs for their activation efficiency by intracellular β-galactosidase, in human liver cancer, HepG2 cells.

The subject of a further experiment is A375 cells. The experiment can be described thus: Cell cycle progression by FACS (subG1 and G2/M population) in A375 cells. The note with it: 1a 42 μM, 1b 23.4 μM. The class given is cell-based, human.
Text: as §1
In general terms: A flow cytometer gives signals particle by particle.

In another experiment the target is E. coli β-galactosidase (Escherichia coli, UniProt P00722). It is filed as biochemical. The note with it: in the presence of β-galactosidase, 60-90 minutes, 37° C., pH 7.2 (phosphate buffer). As for the experimental part: FIG. 1. A drawing illustrating the effect of the prodrug 1a 1 μmole was treated with 2 units of E. coli β galactosidase enzyme and the progress of the hydrolysis was monitored by reverse phase HPLC. HPLC conditions: C18 Reverse phase column. Mobile phase 40:60 CH3CN/ H2O, flow rate of 1 ml/ min. UV detection: wave length 254 nm.
The prodrug 1a 1 μmole was treated with 2 units of E. coli β galactosidase enzyme and the progress of the hydrolysis was monitored by reverse phase HPLC. The results are presented in the form of a graph as illustrated in FIG. 1. Biological Studies Of The Prodrugs

Sequence of E. coli β-galactosidase (P00722 2-1024): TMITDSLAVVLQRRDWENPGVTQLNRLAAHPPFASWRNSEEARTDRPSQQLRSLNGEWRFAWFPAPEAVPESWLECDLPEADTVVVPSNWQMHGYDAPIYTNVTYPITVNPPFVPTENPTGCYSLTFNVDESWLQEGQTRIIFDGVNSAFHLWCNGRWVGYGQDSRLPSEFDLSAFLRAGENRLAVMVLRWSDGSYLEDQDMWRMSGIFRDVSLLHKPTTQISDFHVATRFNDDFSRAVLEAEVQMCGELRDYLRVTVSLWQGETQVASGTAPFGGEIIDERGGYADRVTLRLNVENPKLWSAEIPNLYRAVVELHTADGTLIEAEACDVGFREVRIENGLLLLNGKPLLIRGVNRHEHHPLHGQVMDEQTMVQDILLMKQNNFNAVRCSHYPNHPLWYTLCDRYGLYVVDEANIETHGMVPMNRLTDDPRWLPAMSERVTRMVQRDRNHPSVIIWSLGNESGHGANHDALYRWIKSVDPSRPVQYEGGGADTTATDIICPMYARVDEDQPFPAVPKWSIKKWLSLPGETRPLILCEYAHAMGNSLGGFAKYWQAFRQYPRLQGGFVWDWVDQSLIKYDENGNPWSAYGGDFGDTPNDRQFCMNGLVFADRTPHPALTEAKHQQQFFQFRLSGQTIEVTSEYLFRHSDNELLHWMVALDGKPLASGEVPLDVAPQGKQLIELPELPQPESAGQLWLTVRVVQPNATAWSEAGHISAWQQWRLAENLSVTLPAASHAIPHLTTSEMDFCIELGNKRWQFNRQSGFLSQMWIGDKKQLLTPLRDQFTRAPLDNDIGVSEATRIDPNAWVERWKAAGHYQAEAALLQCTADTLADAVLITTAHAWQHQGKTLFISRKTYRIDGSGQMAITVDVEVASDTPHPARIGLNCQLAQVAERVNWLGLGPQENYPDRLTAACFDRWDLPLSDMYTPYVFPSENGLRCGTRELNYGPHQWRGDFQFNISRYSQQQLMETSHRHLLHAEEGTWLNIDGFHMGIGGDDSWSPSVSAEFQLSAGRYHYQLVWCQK

With `COc1cc2c(cc1OCCCOc1cc3c(cc1OC)C(=O)N1CCC[C@H]1[C@H](O)N3C(=O)OCc1ccc(O[C@@H]3O[C@H](CO)[C@H](O)[C@H](O)[C@H]3O)c([N+](=O)[O-])c1)N(C(=O)OCc1ccc(O[C@@H]3O[C@H](CO)[C@H](O)[C@H](O)[C@H]3O)c([N+](=O)[O-])c1)[C@@H](O)[C@@H]1CCCN1C2=O` [Compound 1b, 1,1′-[[(propane-1,3-diyl)dioxy]-bis(11S,11aS)-10-(4-β-D -galactopyranosyloxy-3-nitrophenyl)methoxycarbonyl-11-hydroxy-7-methoxy-1,2,3,-10,11,11a-hexahydro-5H-pyrrolo[2,1-c][1,4]-benzodiazepin-5-one]], in the experiment on HepG2 cells (HepG2, with added E. coli β-galactosidase), the “cytometric profile / apoptotic response in HepG2 cells in the presence of E. coli β-galactosidase” value is listed as “profile comparable to that of the parent drug 6b”. In addition, the “cytometric profile / apoptotic response in HepG2 cells in the absence of E. coli β-galactosidase” value with HepG2 cells (HepG2, without added enzyme (intracellular β-galactosidase)) is recorded as “block in the G2/M phase of the cell cycle”. Moreover, the “apoptosis / cell death in A375 cells with E. coli β-galactosidase” value in the experiment with A375 cells (A375, with E. coli β-galactosidase) was “apoptosis identical to that of the parent drugs 6a and 6b respectively”. The “amount of cell death in A375 cells in the absence of the enzyme” value in the experiment on A375 cells (A375, without β-galactosidase) is on record as “insignificant”. In addition, the “activation of the prodrug by β-galactosidase” value on E. coli β-galactosidase is listed as “activated to their corresponding carbinolamines”.
